# From article PMC3199943, “Screening the MayBridge Rule of 3 Fragment Library for Compounds That Interact with the Trypanosoma brucei myo-Inositol-3-Phosphate Synthase and/or Show Trypanocidal Activity” (Molecular Biology International, 2011)
# Target: T1, TbINO1 (Trypanosoma brucei brucei, UniProt Q5QQ46)
# T1 sequence (Q5QQ46 1-528): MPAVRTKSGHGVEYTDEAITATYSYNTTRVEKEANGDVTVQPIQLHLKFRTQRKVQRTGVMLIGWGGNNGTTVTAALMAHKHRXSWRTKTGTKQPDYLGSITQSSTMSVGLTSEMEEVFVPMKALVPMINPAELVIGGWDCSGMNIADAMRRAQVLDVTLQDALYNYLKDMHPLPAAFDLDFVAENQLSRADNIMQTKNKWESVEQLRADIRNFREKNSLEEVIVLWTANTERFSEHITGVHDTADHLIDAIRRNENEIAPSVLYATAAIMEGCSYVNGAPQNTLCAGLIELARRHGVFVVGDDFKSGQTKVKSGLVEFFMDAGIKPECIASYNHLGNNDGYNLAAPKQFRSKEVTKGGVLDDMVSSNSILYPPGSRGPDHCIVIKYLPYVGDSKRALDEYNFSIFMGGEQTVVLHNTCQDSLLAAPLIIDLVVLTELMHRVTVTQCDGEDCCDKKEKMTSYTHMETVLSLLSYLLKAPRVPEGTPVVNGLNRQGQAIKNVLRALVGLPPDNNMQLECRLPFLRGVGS
# Assay: biochemical
# Type: binding
# Conditions: read-out: Tb Ino1 Tm Shift [˚C]
row,ΔTm at 1000 µM [°C],Structure (SMILES)
1,0.11 ± 0.08,"Cc1ccc(CN)cc1Cl [compound 233, 3‐chloro‐4‐methylbenzylamine]"
2,0.14 ± 0.08,"CC(=O)c1ccc(F)c(F)c1 [compound 234, 1‐(3,4‐difluorophenyl)ethan‐1‐one]"
3,0.22 ± 0.07,"O=C(O)CCc1cccs1 [compound 237, 3‐(2‐thienyl)propanoic acid]"
4,0.39 ± 0.07,"COC(=O)Cc1ccsc1 [compound 238, methyl 2‐(3‐thienyl)acetate]"
5,0.38 ± 0.09,"COC(=O)c1sccc1N [compound 241, methyl 3‐aminothiophene‐2‐carboxylate]"
6,0.34 ± 0.08,"COC(=O)c1ccsc1N [compound 242, methyl 2‐aminothiophene‐3‐carboxylate]"
7,0.61 ± 0.11,"COC(=O)c1cscc1N [compound 244, methyl 4‐aminothiophene‐3‐carboxylate]"
8,0,"c1cncc(Cn2cccc2)c1 [compound 248, 3‐(1H‐pyrrol‐1‐ylmethyl)pyridine]"
9,0.15 ± 0.05,"Nc1cccc(-n2cccc2)c1 [compound 251, 3‐(1H‐pyrrol‐1‐yl)aniline]"
10,0.7 ± 0.07,"Cc1nc(C(N)=S)cs1 [compound 252, 2‐methyl‐1,3‐thiazole‐4‐carbothioamide]"
11,0.83 ± 0.04,"Nc1ccc(-c2ccco2)cc1 [compound 257, 4‐(2‐furyl)aniline]"
12,0.17 ± 0.06,"Cc1cc(O)nc2ccccc12 [compound 258, 4‐methyl‐2‐quinolinol]"
13,0.62 ± 0.08,"Nc1ccccc1-n1ccnc1 [compound 262, 2‐(1H‐imidazol‐1‐yl)aniline]"
14,0.13 ± 0.09,"Nc1cccc(-c2cnco2)c1 [compound 267, 3‐(1,3‐oxazol‐5‐yl)aniline]"

# Same assay, conditions: read-out: TbIno1 Tm shift [°C]
row,ΔTm at 1000 µM [°C],Structure (SMILES)
1,2.35 ± 0.06,"CC(=O)c1c(O)cccc1O [compound 204, 1-(2,6-dihydroxyphenyl)ethan-1-one]"
2,2.05 ± 0.05,"Cc1csc(N)c1C(N)=O [compound 239, 2-amino-4-methylthiophene-3-carboxamide]"
3,2.2 ± 0.06,"OCc1ccc2ccccc2n1 [compound 256, 2-quinolinylmethanol]"
4,1.83 ± 0.11,"Cc1cc2c(N)cccc2nn1 [compound 261, 3-methylcinnolin-5-amine]"

# System: HeLa cells
# Assay: cells
# Conditions: Homo sapiens, HeLa, 65 h, read-out: HeLa Cells Alamar Blue
# Summary of the method: (§1)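 HeLa and A549 cells grown in DMEM with 10% FCS and 2 mM L-Glutamine were seeded at 2 × 10^4 cells/well. They were exposed to compounds for ~65 hours, then Alamar Blue was added for a further 5 hours to measure viability.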
row,Structure (SMILES),viability at 500 µM [%]
1,"CC(=O)c1c(O)cccc1O [compound 204, 1-(2,6-dihydroxyphenyl)ethan-1-one]",36.3 ± 12.5
2,"Cc1ccc(CN)cc1Cl [compound 233, 3‐chloro‐4‐methylbenzylamine]",91.7 ± 12.6
3,"CC(=O)c1ccc(F)c(F)c1 [compound 234, 1‐(3,4‐difluorophenyl)ethan‐1‐one]",90.3 ± 14
4,"O=C(O)CCc1cccs1 [compound 237, 3‐(2‐thienyl)propanoic acid]",113 ± 7.8
5,"COC(=O)Cc1ccsc1 [compound 238, methyl 2‐(3‐thienyl)acetate]",111 ± 9.9
6,"Cc1csc(N)c1C(N)=O [compound 239, 2-amino-4-methylthiophene-3-carboxamide]",95.8 ± 9.3
7,"COC(=O)c1sccc1N [compound 241, methyl 3‐aminothiophene‐2‐carboxylate]",94.5 ± 13
8,"COC(=O)c1ccsc1N [compound 242, methyl 2‐aminothiophene‐3‐carboxylate]",37 ± 6.1
9,"COC(=O)c1cscc1N [compound 244, methyl 4‐aminothiophene‐3‐carboxylate]",78.7 ± 17.9
10,"c1cncc(Cn2cccc2)c1 [compound 248, 3‐(1H‐pyrrol‐1‐ylmethyl)pyridine]",91.3 ± 11.9
11,"Nc1cccc(-n2cccc2)c1 [compound 251, 3‐(1H‐pyrrol‐1‐yl)aniline]",80.5 ± 3.4
12,"Cc1nc(C(N)=S)cs1 [compound 252, 2‐methyl‐1,3‐thiazole‐4‐carbothioamide]",90.3 ± 10.7
13,"OCc1ccc2ccccc2n1 [compound 256, 2-quinolinylmethanol]",99.2 ± 19.5
14,"Nc1ccc(-c2ccco2)cc1 [compound 257, 4‐(2‐furyl)aniline]",17 ± 12.7
15,"Cc1cc(O)nc2ccccc12 [compound 258, 4‐methyl‐2‐quinolinol]",92.7 ± 13.6
16,"Cc1cc2c(N)cccc2nn1 [compound 261, 3-methylcinnolin-5-amine]",62.5 ± 14.7
17,"Nc1ccccc1-n1ccnc1 [compound 262, 2‐(1H‐imidazol‐1‐yl)aniline]",66.5 ± 16.1
18,"Nc1cccc(-c2cnco2)c1 [compound 267, 3‐(1,3‐oxazol‐5‐yl)aniline]",75 ± 15.2

# Same assay, conditions: Homo sapiens, HeLa, 65 h, read-out: HeLa Cells Alamar Blue (% survival)
row,Structure (SMILES),viability at 500 µM [%]
1,"CC(=O)c1c(O)cccc1O [compound 204, 1-(2,6-dihydroxyphenyl)ethan-1-one]",36.3 ± 12.5
2,"Cc1csc(N)c1C(N)=O [compound 239, 2-amino-4-methylthiophene-3-carboxamide]",95.8 ± 9.3
3,"OCc1ccc2ccccc2n1 [compound 256, 2-quinolinylmethanol]",99.2 ± 19.5
4,"Cc1cc2c(N)cccc2nn1 [compound 261, 3-methylcinnolin-5-amine]",62.5 ± 14.7

# Same assay, conditions: Homo sapiens, HeLa, read-out: HeLa ED50
row,Structure (SMILES),CC50 [µM]
1,"Cc1csc(N)c1C(N)=O [compound 239, 2-amino-4-methylthiophene-3-carboxamide]",> 20000
2,"OCc1ccc2ccccc2n1 [compound 256, 2-quinolinylmethanol]",836 ± 68
3,"Nc1ccc(-c2ccco2)cc1 [compound 257, 4‐(2‐furyl)aniline]",114 ± 8
4,"Cc1cc2c(N)cccc2nn1 [compound 261, 3-methylcinnolin-5-amine]",726 ± 64

# System: A549 cells
# Assay: Cytotoxicity against A549 cells, Alamar Blue
# Type: cell-based
# Conditions: Homo sapiens, A549, 65 h; Supplementary Table 1; compound 0.5 mM; percentage of controls (n=1)
# Summary of the method: as §1
row,Structure (SMILES),viability at 500 µM [%]
1,"CC(=O)c1c(O)cccc1O [compound 204, 1-(2,6-dihydroxyphenyl)ethan-1-one]",34.4
2,"Cc1ccc(CN)cc1Cl [compound 233, 3‐chloro‐4‐methylbenzylamine]",163
3,"CC(=O)c1ccc(F)c(F)c1 [compound 234, 1‐(3,4‐difluorophenyl)ethan‐1‐one]",73.9
4,"O=C(O)CCc1cccs1 [compound 237, 3‐(2‐thienyl)propanoic acid]",70.9
5,"COC(=O)Cc1ccsc1 [compound 238, methyl 2‐(3‐thienyl)acetate]",64.7
6,"Cc1csc(N)c1C(N)=O [compound 239, 2-amino-4-methylthiophene-3-carboxamide]",69.8
7,"COC(=O)c1sccc1N [compound 241, methyl 3‐aminothiophene‐2‐carboxylate]",108
8,"COC(=O)c1ccsc1N [compound 242, methyl 2‐aminothiophene‐3‐carboxylate]",80.5
9,"COC(=O)c1cscc1N [compound 244, methyl 4‐aminothiophene‐3‐carboxylate]",90.3
10,"c1cncc(Cn2cccc2)c1 [compound 248, 3‐(1H‐pyrrol‐1‐ylmethyl)pyridine]",86.6
11,"Nc1cccc(-n2cccc2)c1 [compound 251, 3‐(1H‐pyrrol‐1‐yl)aniline]",79.8
12,"Cc1nc(C(N)=S)cs1 [compound 252, 2‐methyl‐1,3‐thiazole‐4‐carbothioamide]",102
13,"OCc1ccc2ccccc2n1 [compound 256, 2-quinolinylmethanol]",119
14,"Nc1ccc(-c2ccco2)cc1 [compound 257, 4‐(2‐furyl)aniline]",75.7
15,"Cc1cc(O)nc2ccccc12 [compound 258, 4‐methyl‐2‐quinolinol]",90.7
16,"Cc1cc2c(N)cccc2nn1 [compound 261, 3-methylcinnolin-5-amine]",74.1
17,"Nc1ccccc1-n1ccnc1 [compound 262, 2‐(1H‐imidazol‐1‐yl)aniline]",76
18,"Nc1cccc(-c2cnco2)c1 [compound 267, 3‐(1,3‐oxazol‐5‐yl)aniline]",79.8
